This is an account of results in patent publication US3991193A, “Derivatives of 4(3H)-quinazolone, pharmaceutical compositions thereof and methods of use” (Roussel-UCLAF, priority 1973, dated 1976).

Read-outs that look alike come from different tables or passages of the source. A value given as a limit tells only on which side of the number the result lay.

Series [1] relates to mouse. In words: Rotating Drum Test in Mouse. Format: in vivo. The note with it: 0.5 h, 30 min. after dosing, 2 min. test period, read-out: ED50 (dose causing 50% of the mice to fall off the drum). The procedure:
Groups of ten mice received p.o. or i.p. the test compound at various dose levels, a control group receiving the vehicle alone by each route .30 min. after dosing each group of mice was placed on a 30 cm diameter rotating drum revolving at 1 revolution/minute. The mice were placed on the drum against its direction of movement and the number of mice falling off within a 2 min. test period was noted. From the results obtained a dose response line was constructed and the dose causing 50% of the mice to fall off the drum (ED50) was estimated.

A short description of series [2]: Acute Toxicity Test in Rat. The note with it: in vivo. The procedure:
(§1) II. The activity of 2-methyl-3-(o-cyanophenyl)-4(3H)-quinazolone hydrochloride was also investigated in rat by the following tests.
(§2) Groups of ten rats were dosed p.o. or i.p. with various doses of the test compound and after 24 hours were assessed for mortality.
(§3) The activity of Methaqualone was investigated in the same conditions.

Series [3] deals with rat. The series is described as follows: Righting Reflex Test in Rat. The series is classed as in vivo, Sprague-Dawley rat. Particulars: for ED50: male Sprague-Dawley rat, read-out: ED50 (loss of righting reflex). The procedure:
Groups of ten male Sprague-Dawley rats received the test compound i.p. or p.o. at various doses. The animals dosed i.p. were assessed for loss of righting reflex immediately after dosing and those dosed p.o. were assessed at 1/4, 1/2, 1, 2, 4 and 6 hours after dosing.

A short description of series [4]: Acute Toxicity Tests in mouse. The note with it: in vivo. The procedure: 1. The activity of 2-methyl-3-(o-cyanophenyl)-4(3H)-quinazolone hydrochloride was investigated in the mouse by the following 5 tests.
Acute toxicities by p.o and i.p. routes were conducted using groups of ten mice at various dose levels. Groups dosed p.o. and i.p. were assessed for mortality at 24 hours.
The activity of methaqualone (2-methyl-3-(o-tolyl)-4-quinazolone) was investigated under the same conditions by using the test procedures indicated in the five tests above.

Series [5] deals with mouse. In words: Anticonvulsant Test Against Electroshock in Mouse. Format: in vivo. Particulars: 0.5 h, 30 min. after dosing, electroshock 55 mA, read-out: ED50 (dose protecting 50% of the mice from tonic extension of hind limbs). The procedure:
3. Anticonvulsant Test Against Electroshock
Groups of ten mice received p.o. or i.p. the test compound at various dose levels, a control group received the vehicle alone. 30 min. after dosing, each group was then shocked via auricular electrodes using the electroshock apparatus (Ugo Basile ECT apparatus for small mammals) using the following parameters: […]
______________________________________
The number of mice which underwent tonic extension of hind limbs was noted. The dose protecting 50% of the mice (ED50) was estimated.

The subject of series [6] is mouse. The series is described as follows: Potentiation of Hexobarbitone Sleeping Time in Mouse. Format: in vivo. The note with it: i.p., Hexobarbitone Sodium 65 mg/kg i.v. The procedure: 4. Potentiation of Hexobarbitone Sleeping Time
A group of eight control mice received a dose of 65 mg/kg Hexobarbitone Sodium i.v. and subsequent sleeping times were recorded. A time value equivalent to mean sleeping time plus two standard deviations was established as a cut-off point. Other groups of eight mice received in identical dose of Hexobarbitone Sodium and at half the means control sleeping time were given various doses of the test compound i.p. The number of mice in each group asleep at the cut-off was recorded. A dose response curve was constructed and the dose at which 50% of the mice remained asleep at this cut-off point (ED50) was estimated.

The test system of series [7] is mouse. In words: Righting Reflex Test in Mouse. Format: in vivo. Particulars: for ED50: at time of peak activity, read-out: ED50 (dose producing loss of righting reflex in 50% of a group of mice). The procedure:
Groups of ten mice received the test compound orally or i.p. at various dose levels, a control group receiving vehicle alone. All mice were housed individually in glass beakers and were assessed for loss of righting reflex at 1/4, 1/2, 1, 2, 4 and 6 hours after dosing. […] From the results obtained a dose response line was constructed and the dose producing 50% loss of righting reflex was estimated for each observation time. This ED50 value (the dose producing loss of righting reflex in 50% of a group of mice) was quoted for the time of peak activity.

Series [8] deals with rat. In words: Acute Toxicity Test in Rat. The procedure: as §1, §2, §3
Setting [9] is: ip, i.p., assessed immediately after dosing.
The mark [10] stands for this setting: po, p.o., assessed 1/4 to 6 hours after dosing.

What is called ED50 is the dose at which the effect has come halfway, by size or by number of responders. As usually defined, the LD50 is the dose at which mortality reaches 50%. A low value points to greater toxicity. For the compound `Cc1ccccc1-n1c(C)nc2ccccc2c1=O` [Methaqualone, 2-methyl-3-(o-tolyl)-4-quinazolone, reference compound], the ED50 came out at 30 mg/kg in series [1] (ip, i.p.); 49 mg/kg in series [1] (po, p.o.); 48 mg/kg in series [3] (setting [9]); 170 mg/kg in series [3] (setting [10]); 21.5 mg/kg in series [5] (ip, i.p.); 42 mg/kg in series [5] (po, p.o.). In addition, the ED50 in series [7] (ip) came out at 81 mg/kg; in series [7] (po), 160 mg/kg. For the same compound, the LD50 at 24 h in series [2] (ip) was 190 mg/kg; in series [2] (po), 440 mg/kg; in series [4] (ip), 550 mg/kg; in series [4] (po), 1700 mg/kg. Moreover, in series [6], the “ED50 (dose at which 50% of the mice remained asleep at the cut-off point)” value was found to be 25 mg/kg.
`Cc1nc2ccccc2c(=O)n1-c1ccccc1C#N.Cl` [2-methyl-3-(o-cyanophenyl)-4(3H)-quinazolone hydrochloride]: the ED50 worked out at 26.5 mg/kg in series [1] (ip, i.p.); 23 mg/kg in series [1] (po, p.o.); 28 mg/kg in series [3] (setting [9]); 106 mg/kg in series [3] (setting [10]); 10 mg/kg in series [5] (ip, i.p.); 9 mg/kg in series [5] (po, p.o.). Further, the figures for the ED50 in series [7] (ip) and in series [7] (po) were 47 mg/kg and 112 mg/kg, respectively. Besides, the “toxicity compared with Methaqualone” value in series [8] is recorded as “less toxic”. In addition, the LD50 at 24 h is greater than 300 mg/kg in series [2] (ip), greater than 1000 mg/kg in series [2] (po), 570 mg/kg in series [4] (ip) and 1600 mg/kg in series [4] (po). In addition, the “effectiveness compared with Methaqualone” value in series [3] (rat) is listed as “much more effective than Methaqualone in the rat”. Also, in series [7] (oral), the oral hypnotic effectiveness entry is reported as “very effective oral hypnotic in mouse”.
